# Results reported in patent US7576076B2, “Modified pyrimidine glucocorticoid receptor modulators” (Corcept Therapeutics, Inc., priority 2004, dated 2009).
# Read-outs that look alike come from different tables or passages of the source.
# Legend:
# [1] = target: T1, human recombinant glucocorticoid receptor (Homo sapiens, UniProt P04150); experiment: Glucocorticoid receptor binding displacement assay with 3H-dexamethasone
# T1 construct: This GR was a full-length steroid hormone receptor; host or cells: recombinant baculovirus-infected insect cells
# T1 sequence (P04150 1-777): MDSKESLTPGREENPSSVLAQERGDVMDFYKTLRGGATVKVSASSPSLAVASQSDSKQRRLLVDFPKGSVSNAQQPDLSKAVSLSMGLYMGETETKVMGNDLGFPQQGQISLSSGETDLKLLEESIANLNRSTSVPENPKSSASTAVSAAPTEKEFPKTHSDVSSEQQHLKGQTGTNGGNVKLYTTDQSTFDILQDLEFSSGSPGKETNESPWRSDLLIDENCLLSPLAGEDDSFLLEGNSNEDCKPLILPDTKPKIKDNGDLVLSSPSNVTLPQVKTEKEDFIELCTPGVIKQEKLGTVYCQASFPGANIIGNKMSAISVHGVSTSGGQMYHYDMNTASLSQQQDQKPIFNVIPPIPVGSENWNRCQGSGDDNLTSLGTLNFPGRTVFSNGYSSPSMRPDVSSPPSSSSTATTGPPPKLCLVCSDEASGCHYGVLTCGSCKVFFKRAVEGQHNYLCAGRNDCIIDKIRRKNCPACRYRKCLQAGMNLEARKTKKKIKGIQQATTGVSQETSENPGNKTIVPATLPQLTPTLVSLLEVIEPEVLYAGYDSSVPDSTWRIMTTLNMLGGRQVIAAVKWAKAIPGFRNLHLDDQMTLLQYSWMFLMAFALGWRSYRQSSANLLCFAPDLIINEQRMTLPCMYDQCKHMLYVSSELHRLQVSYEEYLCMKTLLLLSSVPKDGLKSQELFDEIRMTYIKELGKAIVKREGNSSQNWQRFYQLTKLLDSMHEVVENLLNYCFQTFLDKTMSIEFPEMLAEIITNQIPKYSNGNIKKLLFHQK
# Procedure: The source of the receptor was recombinant baculovirus-infected insect cells. This GR was a full-length steroid hormone receptor likely to be associated with heat-shock and other endogenous proteins.
# For the Primary Screen, test compounds were tested at 1 μM in duplicate. These compounds were diluted from 10 mM stock in 100% DMSO. After dilution to 100 μM, 5 μl were added to 245 μl assay buffer to obtained 2 μM compound and 2% DMSO.
# For the IC50 determinations, test compounds were tested at 6 concentrations in duplicate (concentration range depends on % inhibition binding that was obtained in the Primary Screen,). Test compounds were diluted from 10 mM stock in 100% DMSO. The tested solutions were prepared at 2×final assay concentration in 2% DMSO/assay buffer.
# All reagents and the assay plate were kept on ice during the addition of reagents. […] After the additions, the incubation mixture was mixed and incubated for 2.5 hrs at 4° C.
# After 2.5 hrs incubation, unbound counts were removed with dextran coated charcoal (DCC) as follows: 25 μl of DCC solution (10% DCC in assay buffer) was added to all wells and mixed (total volume 225 μl). The plate was centrifuged at 4000 rpm for 10 minutes at 4° C. 75 μl of the supernatants (i.e. ⅓ of total volume) was carefully pipetted into an optiplate. 200 μl of scintillation cocktail were added (Microscint-40, Packard Bioscience. B.V.). The plate was vigorously shaken for approx. 10 minutes and counted on Topcount.
# The IC50 values were converted to Ki (the inhibition constant) using the Cheng-Prusoff equation.
# Reagents: Assay buffer: 10 mM potassium phosphate buffer pH 7.6 containing 5 mM DTT, 10 mM sodium molybdate, 100 μM EDTA and 0.1% BSA.
# [2] = target: T2, endogenous glucocorticoid receptors in SW1353/MMTV-5 cells (Homo sapiens, UniProt P04150); experiment: GR functional assay using SW1353/MMTV-5 cells (luciferase reporter); assay type: cell-based
# T2 construct: contains endogenous glucocorticoid receptors; endogenous in cells; host or cells: SW1353/MMTV-5 (human chondrosarcoma, stably transfected with the pMAMneo-Luc reporter only)
# T2 sequence (P04150 1-777): T1 sequence (P04150 1-777)
# Procedure: SW1353/MMTV-5 is an adherent human chondrosarcoma cell line that contains endogenous glucocorticoid receptors. It was transfected with a plasmid (pMAMneo-Luc) encoding firefly luciferase located behind a glucocorticoid-responsive element (GRE) derived from a viral promoter (long terminal repeat of mouse mammary tumor virus). A stable cell line SW1353/MMTV-5 was selected with geneticin, which was required to maintain this plasmid.
# SW1353/MMTV-5 cells were distributed in 96-well plates and incubated in medium (without geneticin) for 24 hrs (in the absence of CO2).
# [3] = displacement of 2.5 nM 3H-dexamethasone, IC50 converted to Ki by Cheng-Prusoff, read-out: Ki
SMILES,"Ki [1, 3]",Ki [2],Ki ([1]; Ki)
Cn1c(=O)[nH]c(N2CCC(O)CC2)c(Cc2cccc(C(F)(F)F)c2)c1=O [Compound 1],> 0.1 µM,,
CCOC(=O)N1CCN(c2[nH]c(=O)n(C)c(=O)c2Cc2cccc(C(F)(F)F)c2)CC1 [Compound 2],> 0.1 µM,,
Cn1c(=O)[nH]c(N2CCC(Cc3ccccc3)CC2)c(Cc2ccccc2Br)c1=O [Compound 3],> 0.1 µM,,
Cn1c(=O)[nH]c(N2CCC(Cc3ccccc3)CC2)c(Cc2ccccc2Br)c1=O [Compound 4],0.01 to 0.1 µM,,
Cn1c(=O)[nH]c(N2CCC(Cc3ccccc3)CC2)c(Cc2ccccc2)c1=O [Compound 5],0.01 to 0.1 µM,,
Cn1c(=O)[nH]c(N2CCC(Cc3ccccc3)CC2)c(Cc2ccc(F)cc2F)c1=O [Compound 6],0.01 to 0.1 µM,,
Cn1c(=O)[nH]c(N2CCC(Cc3ccccc3)CC2)c(Cc2ccc(Br)cc2)c1=O [Compound 7],0.01 to 0.1 µM,,
Cn1c(=O)[nH]c(N2CCC(Cc3ccccc3)CC2)c(Cc2ccc(F)cc2Cl)c1=O [Compound 8],> 0.1 µM,,
Cn1c(=O)[nH]c(N2CCC(Cc3ccccc3)CC2)c(Cc2ccc(C#N)cc2)c1=O [Compound 9],> 0.1 µM,,
Cc1ccc(Cc2c(N3CCC(Cc4ccccc4)CC3)[nH]c(=O)n(C)c2=O)cc1 [Compound 10],0.01 to 0.1 µM,,
CC(C)=CCc1c(N2CCC(Cc3ccccc3)CC2)[nH]c(=O)n(C)c1=O [Compound 11],> 0.1 µM,,
Cn1c(=O)[nH]c(N2CCC(Cc3ccccc3)CC2)c(Cc2ccc(C(C)(C)C)cc2)c1=O [Compound 13],> 0.1 µM,,
Cn1c(=O)[nH]c(N2CCC(Cc3ccccc3)CC2)c(Cc2ccccc2-c2ccccc2)c1=O [Compound 14],> 0.1 µM,,
Cn1c(=O)[nH]c(N2CCN(Cc3ccccc3)CC2)c(Cc2ccccc2)c1=O [Compound 16],> 0.1 µM,,
Cn1c(=O)[nH]c(N2CCC(c3ccccc3)CC2)c(Cc2ccccc2)c1=O [Compound 17],0.01 to 0.1 µM,,
O=c1[nH]c(N2CCC(Cc3ccccc3)CC2)c(Cc2ccccc2)c(=O)[nH]1 [Compound 18],0.01 to 0.1 µM,,
Cn1c(=O)[nH]c(N2CCC(O)(Cc3ccccc3)CC2)c(Cc2ccccc2)c1=O [Compound 19],> 0.1 µM,,
Cn1c(=O)[nH]c(N2CCN(C(c3ccccc3)c3ccccc3)CC2)c(Cc2ccccc2)c1=O [Compound 21],> 0.1 µM,,
O=c1[nH]c(N2CCN(Cc3ccccc3)CC2)c(Cc2ccccc2)c(=O)[nH]1 [Compound 22],> 0.1 µM,,
O=c1[nH]c(N2CCC(Cc3ccccc3)CC2)c(Cc2cccc(Cl)c2)c(=O)n1Cc1ccccc1 [Compound 24],0.01 to 0.1 µM,,

SMILES,"Ki [1, 3]",Ki [2],Ki ([1]; Ki)
O=c1[nH]c(N2CCC(Cc3ccccc3)CC2)c(Cc2cccc(Cl)c2)c(=O)n1-c1ccccc1 [Compound 25],> 0.1 µM,,
CC(C)Cn1c(=O)[nH]c(N2CCC(Cc3ccccc3)CC2)c(Cc2cccc(Cl)c2)c1=O [Compound 26],> 0.1 µM,,
O=c1[nH]c(N2CCC(c3ccccc3)CC2)c(Cc2cccc(Cl)c2)c(=O)n1Cc1ccccc1 [Compound 27],> 0.1 µM,,
Cn1c(=O)[nH]c(N2CCC(c3ccccc3)CC2)c(CCc2ccccc2)c1=O [Compound 28],> 0.1 µM,,
CCn1c(=O)[nH]c(N2CCC(Cc3ccccc3)CC2)c(Cc2cccc(Cl)c2)c1=O [Compound 29],> 0.1 µM,,
CCn1c(=O)[nH]c(N2CCC(c3ccccc3)CC2)c(Cc2cccc(Cl)c2)c1=O [Compound 30],> 0.1 µM,,
O=c1[nH]c(N2CCC(c3ccccc3)CC2)c(Cc2ccccc2)c(=O)[nH]1 [Compound 31],< 0.01 µM,0.01 to 0.1 µM,
O=c1[nH]c(N2CCC(c3ccccc3)CC2)c(Cc2ccccc2Cl)c(=O)[nH]1 [Compound 33],< 0.01 µM,0.01 to 0.1 µM,
Cn1c(=O)[nH]c(N2CCC(c3ccccc3)CC2)c(Cc2ccccc2Cl)c1=O [Compound 34],0.01 to 0.1 µM,> 0.1 µM,
O=c1[nH]c(N2CCC(c3ccccc3)CC2)c(Cc2cccc(Cl)c2)c(=O)[nH]1 [Compound 35],< 0.01 µM,0.01 to 0.1 µM,
O=c1[nH]c(N2CCC(c3ccccc3)CC2)c(Cc2ccc(Cl)cc2)c(=O)[nH]1 [Compound 36],0.01 to 0.1 µM,> 0.1 µM,
Cn1c(=O)[nH]c(N2CCC(Oc3ccccc3)CC2)c(Cc2ccccc2)c1=O [Compound 37],,,0.01 to 0.1 µM
O=c1[nH]c(N2CCC(c3ccccc3)CC2)c(Cc2cccc(Br)c2)c(=O)[nH]1 [Compound 38],0.01 to 0.1 µM,0.01 to 0.1 µM,
COc1cccc(C2CCN(c3[nH]c(=O)[nH]c(=O)c3Cc3ccccc3)CC2)c1 [Compound 39],< 0.01 µM,,
COc1ccc(C2CCN(c3[nH]c(=O)[nH]c(=O)c3Cc3ccccc3)CC2)cc1 [Compound 40],0.01 to 0.1 µM,,
COc1ccccc1C1CCN(c2[nH]c(=O)[nH]c(=O)c2Cc2ccccc2)CC1 [Compound 41],< 0.01 µM,,
O=c1[nH]c(N2CCC(c3c[nH]c4ccccc34)CC2)c(Cc2ccccc2)c(=O)[nH]1 [Compound 42],0.01 to 0.1 µM,,
CC(=O)Nc1ccc(C2CCN(c3[nH]c(=O)[nH]c(=O)c3Cc3ccccc3)CC2)cc1 [Compound 46],0.01 to 0.1 µM,,
N#Cc1cccc(Cc2c(N3CCC(c4ccccc4)CC3)[nH]c(=O)[nH]c2=O)c1 [Compound 48],0.01 to 0.1 µM,,
